Data published in US8772480B2, “Inhibitors of PI3 kinase and/or mTOR” (priority 2009, dated 2014).

test system: phosphorylation of Akt at Serine 473 in U87 MG cells; assay: cells; conditions: Homo sapiens, U-87 MG, 2 h, read-out: U87Cell IC50

SMILES | IC50
COc1ccc(NCc2cnc(Nc3ccc(OC)nc3)c(-c3nc(C)nc4[nH]cnc34)c2)cc1 [Example 77, 5-((4-methoxyphenylamino)methyl)-N-(6-methoxypyridin-3-yl)-3-(2-methyl-9H-purin-6-yl)pyridin-2-amine] | 0.167 µM
Cc1nc(N)nc(-c2cccnc2Nc2cnc(Cl)c(N)c2)n1 [Example 265, N5-(3-(4-Amino-6-Methyl-1,3,5-Triazin-2-yl)Pyridin-2-yl)-2-Chloropyridine-3,5-Diamine] | 0.349 µM
Cc1nc(N)nc(-c2cccnc2Nc2cnc(Cl)c(NS(=O)(=O)N3CCOCC3)c2)n1 [Example 366, N-(5-(3-(4-Amino-6-Methyl-1,3,5-Triazin-2-yl)Pyridin-2-Ylamino)-2-Chloropyridin-3-yl)Morpholine-4-Sulfonamide] | 0.04 µM
Cc1nc(N)nc(-c2cccnc2Nc2cnc(Cl)c(NS(=O)(=O)N(C)C(C)C)c2)n1 [Example 367, N-(5-(3-(4-Amino-6-Methyl-1,3,5-Triazin-2-yl)Pyridin-2-Ylamino)-2-Chloropyridin-3-yl)-N-Isopropyl-N-Methylaminosulfamide] | 0.246 µM

same assay, conditions: Homo sapiens, U-87 MG, 2 h, read-out: U87Cell IC50, pAkt (Ser 473), U87 MG cells, two hours with compound

SMILES | IC50
COc1cccc(Nc2cnc(Nc3ccc(OC)nc3)c(-c3nc(C)nc4[nH]cnc34)c2)c1 [Example 96, N5-(3-methoxyphenyl)-N2-(6-methoxypyridin-3-yl)-3-(2-methyl-9H-purin-6-yl)pyridine-2,5-diamine] | 0.412 µM
CC(=O)Nc1ccc(Nc2ncc(Cc3ccc(S(C)(=O)=O)cc3)cc2-c2nc(C)nc3[nH]cnc23)cn1 [Example 105, N-(5-(3-(2-methyl-9H-purin-6-yl)-5-(4-(methylsulfonyl)benzyl)pyridin-2-ylamino)pyridin-2-yl)acetamide] | 0.159 µM
COc1ccc(Nc2nc(NC3CCCC3)ncc2-c2nc(C)nc(N)n2)cn1 [Example 126, 5-(4-amino-6-methyl-1,3,5-triazin-2-yl)-N2-cyclopentyl-N4-(6-methoxypyridin-3-yl)pyrimidine-2,4-diamine] | 0.24 µM
COc1ncc(Nc2ncc(F)cc2-c2nc(C)nc(N)n2)cc1F [Example 185, 4-(5-Fluoro-2-(5-Fluoro-6-Methoxypyridin-3-Ylamino)Pyridin-3-yl)-6-Methyl-1,3,5-Triazin-2-Amine] | 0.199 µM
Cc1nc(N)nc(-c2cccnc2Nc2ccc(NC(=O)Nc3ccccc3)nc2)n1 [Example 190, 1-(5-(3-(4-Amino-6-Methyl-1,3,5-Triazin-2-yl)Pyridin-2-Ylamino)Pyridin-2-yl)-3-Phenylurea] | 0.891 µM
Cc1nc(N)nc(-c2cc(CN3CCN(S(C)(=O)=O)CC3)cnc2Nc2cc(F)cc3[nH]ncc23)n1 [Example 245, N-(3-(4-Amino-6-Methyl-1,3,5-Triazin-2-yl)-5-((4-(Methylsulfonyl)Piperazin-1-yl)Methyl)Pyridin-2-yl)-6-Fluoro-1H-Indazol-4-Amine] | 0.019 µM
COc1ncc(Nc2ncc(C(N3CCN(S(C)(=O)=O)CC3)C(F)(F)F)cc2-c2nc(C)nc(N)n2)cc1F (centres unmarked) [Example 325, 4-(2-(5-Fluoro-6-Methoxypyridin-3-Ylamino)-5-(2,2,2-Trifluoro-1-(4-(Methylsulfonyl)Piperazin-1-yl)Ethyl)Pyridin-3-yl)-6-Methyl-1,3,5-Triazin-2-Amine] | 0.026 µM
COc1ncc(Nc2ncc(C3=CCOCC3)cc2-c2nc(C)nc(N)n2)cc1F [Example 343, 4-(5-(3,6-Dihydro-2H-Pyran-4-yl)-2-(5-Fluoro-6-Methoxypyridin-3-Ylamino)Pyridin-3-yl)-6-Methyl-1,3,5-Triazin-2-Amine] | 0.015 µM
COc1ncc(Nc2ncc([C@@H](C)N3CCN(S(C)(=O)=O)C[C@H]3C)cc2-c2nc(C)nc(N)n2)cc1F [Example 360, 4-(2-(5-Fluoro-6-Methoxypyridin-3-Ylamino)-5-((R)-1-((R)-2-Methyl-4-(Methylsulfonyl)Piperazin-1-yl)Ethyl)Pyridin-3-yl)-6-Methyl-1,3,5-Triazin-2-Amine] | 0.012 µM
Cc1nc(N)cc(-c2cc(C(C)N3CCOCC3)cnc2Nc2cnc(Cl)c(NS(=O)(=O)N(C)C)c2)n1 (centres unmarked) [Example 379, N-(2-Chloro-5-(3-(6-Amino-2-Methylpyrimidin-4-yl)-5-(1-Morpholinoethyl)Pyridin-2-Ylamino)Pyridin-3-yl)-N,N-Dimethylaminosulfamide] | 0.046 µM
Cc1nc(N)cc(-c2cc([C@@H](C)N3CCOCC3)cnc2Nc2cnc(Cl)c(NS(=O)(=O)N(C)C)c2)n1 [Example 381, (R)—N-(2-Chloro-5-(3-(6-Amino-2-Methylpyrimidin-4-yl)-5-(1-Morpholinoethyl)Pyridin-2-Ylamino)Pyridin-3-yl)-N,N-Dimethylaminosulfamide] | 0.04 µM

Other lines, results leading:

IC50 | SMILES
1.15 µM | CCOc1ccc(Nc2ncccc2-c2nc(C)nc(N)n2)cn1 [Example 49, 4-(2-(6-ethoxypyridin-3-ylamino)pyridin-3-yl)-6-methyl-1,3,5-triazin-2-amine]
0.479 µM | COc1cccc(NCc2cnc(Nc3ccc(OC)nc3)c(-c3nc(C)nc4[nH]cnc34)c2)c1 [Example 78, 5-((3-methoxyphenylamino)methyl)-N-(6-methoxypyridin-3-yl)-3-(2-methyl-9H-purin-6-yl)pyridin-2-amine]
0.072 µM | COc1ccc(Nc2ncc(CNc3cccnc3)cc2-c2nc(C)nc3[nH]cnc23)cn1 [Example 79, N-(6-methoxypyridin-3-yl)-3-(2-methyl-9H-purin-6-yl)-5-((pyridin-3-ylamino)methyl)pyridin-2-amine]
0.088 µM | CC(=O)Nc1ccc(Nc2ncccc2-c2nc(C)nc3[nH]cnc23)cc1 [Example 102, N-(4-(3-(2-methyl-9H-purin-6-yl)pyridin-2-ylamino)phenyl)acetamide]
0.13 µM | Cc1nc(-c2cc(Cc3ccc(S(C)(=O)=O)cc3)cnc2Nc2cccc3[nH]ncc23)c2nc[nH]c2n1 [Example 104, N-(3-(2-methyl-9H-purin-6-yl)-5-(4-(methylsulfonyl)benzyl)pyridin-2-yl)-1H-indazol-4-amine]
1.22 µM | CC(=O)Nc1cc(-c2cnccc2Nc2cccc3[nH]ccc23)nc(C)n1 [Example 108, N-(6-(4-(1H-indol-4-ylamino)pyridin-3-yl)-2-methylpyrimidin-4-yl)acetamide]
> 10 µM | COc1ccc(Nc2nc(-c3ccncc3)ncc2-c2nc(C)nc(N)n2)cn1 [Example 124, 4-(4-(6-methoxypyridin-3-ylamino)-2-(pyridin-4-yl)pyrimidin-5-yl)-6-methyl-1,3,5-triazin-2-amine]
0.249 µM | COc1ccc(Nc2ncc(Cl)cc2-c2nc(C)nc3[nH]cnc23)cn1 [Example 127, 5-chloro-N-(6-methoxypyridin-3-yl)-3-(2-methyl-9H-purin-6-yl)pyridin-2-amine]
0.006 µM | COc1ncc(Nc2ncc(C(C)N3CCN(S(C)(=O)=O)CC3)cc2-c2nc(C)nc(N)n2)cc1F (centres unmarked) [Example 143, 4-(2-(5-fluoro-6-methoxypyridin-3-ylamino)-5-(1-(4-(methylsulfonyl)piperazin-1-yl)ethyl)pyridin-3-yl)-6-methyl-1,3,5-triazin-2-amine]
0.005 µM | COc1ncc(Nc2ncc([C@@H](C)N3CCN(S(C)(=O)=O)CC3)cc2-c2nc(C)nc(N)n2)cc1F [Example 148, (R)-4-(2-(5-Fluoro-6-Methoxypyridin-3-Ylamino)-5-(1-(4-(Methylsulfonyl)Piperazin-1-yl)Ethyl)Pyridin-3-yl)-6-Methyl-1,3,5-Triazin-2-Amine]
0.037 µM | COc1ncc(Nc2ncc(C(=O)N3CCN(S(C)(=O)=O)CC3)cc2-c2nc(C)nc(N)n2)cc1F [Example 152, 4-(2-((5-Fluoro-6-Methoxy-3-Pyridinyl)Amino)-5-((4-(Methylsulfonyl)-1-Piperazinyl)Carbonyl)-3-Pyridinyl)-6-Methyl-1,3,5-Triazin-2-Amine]
2.59 µM | Cc1nc(N)nc(-c2cccnc2Nc2ccc3oc(C)nc3c2)n1 [Example 165, N-(3-(4-Amino-6-Methyl-1,3,5-Triazin-2-yl)Pyridin-2-yl)-2-Methylbenzo[D]Oxazol-5-Amine]
1.16 µM | COc1cc(Nc2ncccc2-c2nc(C)nc(N)n2)ccc1F [Example 167, 4-(2-(4-Fluoro-3-Methoxyphenylamino)Pyridin-3-yl)-6-Methyl-1,3,5-Triazin-2-Amine]
0.092 µM | Cc1nc(-c2cccnc2Nc2ccc(NC(=O)C3CC3)cc2)c2nc[nH]c2n1 [Example 182, N-(4-(3-(2-Methyl-9H-Purin-6-yl)Pyridin-2-Ylamino)Phenyl)Cyclopropanecarboxamide]
2.13 µM | Cc1nc(N)nc(-c2cccnc2Nc2ccc(NC(=O)Nc3cccc(F)c3)nc2)n1 [Example 191, 1-(5-(3-(4-Amino-6-Methyl-1,3,5-Triazin-2-yl)Pyridin-2-Ylamino)Pyridin-2-yl)-3-(3-Fluorophenyl)Urea]
0.1 µM | CC(=O)Nc1ccc(Nc2ncc(Cl)cc2-c2nc(C)nc(N)n2)cn1 [Example 193, N-(5-(3-(4-Amino-6-Methyl-1,3,5-Triazin-2-yl)-5-Chloropyridin-2-Ylamino)Pyridin-2-yl)Acetamide]
> 10 µM | COC(=O)Nc1ccc(Nc2ncc(Cl)cc2-c2nc(C)nc(N)n2)cn1 [Example 194, Methyl 5-(3-(4-Amino-6-Methyl-1,3,5-Triazin-2-yl)-5-Chloropyridin-2-Ylamino)Pyridin-2-Ylcarbamate]
0.014 µM | COc1ncc(Nc2ncc(C(C)(C)N3CCN(S(C)(=O)=O)CC3)cc2-c2nc(C)nc(N)n2)cc1F [Example 280, 4-(2-(5-Fluoro-6-Methoxypyridin-3-Ylamino)-5-(2-(4-(Methylsulfonyl)Piperazin-1-yl)Propan-2-yl)Pyridin-3-yl)-6-Methyl-1,3,5-Triazin-2-Amine]
0.001 µM | Cc1nc(N)nc(-c2cc(C3CCOCC3)cnc2Nc2cnc(Cl)c(NS(C)(=O)=O)c2)n1 [Example 328, N-(5-(3-(4-Amino-6-Methyl-1,3,5-Triazin-2-yl)-5-(Tetrahydro-2H-Pyran-4-yl)Pyridin-2-Ylamino)-2-Chloropyridin-3-yl)Methanesulfonamide]
1.16 µM | Cc1nc(N)nc(-c2cc(C(C)(C)O)cnc2Nc2cncc(S(C)(=O)=O)c2)n1 [Example 355, 2-(5-(4-Amino-6-Methyl-1,3,5-Triazin-2-yl)-6-(5-(Methylsulfonyl)Pyridin-3-Ylamino)Pyridin-3-yl)Propan-2-ol]
